The assay addresses T1, BCL6::BCOR (Homo sapiens, UniProt P41182, C67R/C84N/C8Q).
T1 construct: BCL6 (amino acids 5 to 129, with the following changes to the natural protein); made in house; host or cells: E. coli
The assay is described as follows: BCL6::BCOR ULight TR-FRET assay. It is filed as binding. The source says:
Biological Methods BCL6::BCOR ULight TR-FRET Assay:
Biotinylated BCL6 protein corresponding to BCL6 (amino acids 5 to 129, with the following changes to the natural protein: C8Q, C67R, C84N) is expressed in E. coli with a carboxy-terminal Avi tag (amino acid sequence […]). The BCOR ULight peptide uses a direct carboxy-terminal ULight tag (PerkinElmer). The sequence of the peptide is CRSEIISTAPSSWVVPGP, with the amino terminus acetylated and the ULight tag attached to the cysteine. Compounds are dispensed onto assay plates (Proxiplate 384 PLUS, white, PerkinElmer) using an Access Labcyte Workstation with the Labcyte Echo 55×from a DMSO solution. For the chosen highest assay concentration of 100 μM, 150 nl of compound solution are transferred from a 10 mM DMSO compound stock solution. A series of 11 concentrations is transferred for each compound at which each concentration is fivefold lower than the previous one. DMSO is added such that every well has a total of 150 nl compound solution. 5 μL of 1 nM BCL6 protein in assay buffer (50 mM HEPES pH 7.3; 125 mM NaCl; 1 mM GSH; 0.01% Triton-X 100; 0.03% BSA) are added to the 150 nl of compounds. After 30 minutes incubation time at room temperature, 10 μL of a mix containing BCOR ULight peptide (100 nM final assay concentration) and Streptavidin-Europium (0.75 nM final assay concentration) are added. Plates are kept at room temperature. After 240 minutes incubation time the TR-FRET signal is measured in a PerkinElmer Envision HTS Multilabel Reader using the TR-FRET LANCE Ultra specs of PerkinElmer. Each plate contains negative controls (diluted DMSO instead of test compound; BCOR peptide and Streptavidin Europium mix with BCL6 protein) and positive controls (diluted DMSO instead of test compound; BCOR peptide and Streptavidin-Europium mix without BCL6 protein). Negative and positive control values are used for normalization.

Structures are written as SMILES.

Usually IC50 stands for the concentration needed to halve the response being measured. On to `CNC(=O)COc1cc2cc(Nc3nc(N4CCC[C@H](C)C4)ncc3Cl)ccc2n(C)c1=O` [Compound I-66], for which the concentration for half-maximal inhibition (IC50) turned out to be 5 nM.
For `CNC(=O)COc1cc2cc(Nc3nc(N4CCc5cn[nH]c5C4)ncc3Cl)ccc2n(C)c1=O` [Compound I-67] the value was 5 nM; for `CNC(=O)COc1cc2cc(Nc3nc(N4CCc5cnn(C)c5C4)ncc3Cl)ccc2n(C)c1=O` [Compound I-68], 7 nM.
With `CNC(=O)COc1cc2cc(Nc3nc(N4CCCC(C)(C#N)C4)ncc3Cl)ccc2n(C)c1=O` (centres unmarked) [Compound I-69], the 50% inhibitory concentration (IC50) was found to be 23 nM.
Regarding `CNC(=O)COc1cc2cc(Nc3nc(N4CCC[C@@H](C)C4)ncc3Cl)ccc2n(C)c1=O` [Compound I-70], the midpoint of inhibition, the IC50, lay at 7 nM.
`CNC(=O)COc1cc2cc(Nc3nc(N4CCCC(C)(C)C4)ncc3Cl)ccc2n(C)c1=O` [Compound I-71] returned an IC50 of 9 nM.
For `CNC(=O)COc1cc2cc(Nc3nc(N4CC5CCCC5C4)ncc3Cl)ccc2n(C)c1=O` (centres unmarked) [Compound I-72] the value was 9 nM; for `CCn1c(=O)c(OCC(=O)NC)cc2cc(Nc3nc(N4CCC(C(=O)O)CC4)ncc3Cl)ccc21` [Compound I-73], 4 nM.
For `CCn1c(=O)c(OCC(=O)NC)cc2cc(Nc3nc(N4C[C@H](C)C[C@H](C)C4)ncc3Cl)ccc21` [Compound I-74] the value was 5 nM; for `CCn1c(=O)c(OCC(=O)NC)cc2cc(Nc3nc(N4CCC(F)CC4)ncc3Cl)ccc21` [Compound I-75], 5 nM.
Molecule `CCn1c(=O)c(OCC(=O)NC)cc2cc(Nc3nc(N4CCC(F)(F)CC4)ncc3Cl)ccc21` [Compound I-76] registered a half-inhibitory concentration (IC50) of 5 nM.
For `CCn1c(=O)c(OCC(=O)NC)cc2cc(Nc3nc(N4CCC[C@@H](C)C4)ncc3Cl)ccc21` [Compound I-77] the value was 8 nM; for `CCCn1c(=O)c(OCC(=O)NC)cc2cc(Nc3nc(N4CCC(C(=O)O)CC4)ncc3Cl)ccc21` [Compound I-78], 4 nM.
For `CCCn1c(=O)c(OCC(=O)NC)cc2cc(Nc3nc(N4C[C@H](C)C[C@H](C)C4)ncc3Cl)ccc21` [Compound I-79] the value was 11 nM; for `CCCn1c(=O)c(OCC(=O)NC)cc2cc(Nc3nc(N4CCC(F)CC4)ncc3Cl)ccc21` [Compound I-80], 7 nM.
`CCCn1c(=O)c(OCC(=O)NC)cc2cc(Nc3nc(N4CCC(F)(F)CC4)ncc3Cl)ccc21` [Compound I-81]: the IC50 stood at 7 nM.
For `CNC(=O)COc1cc2cc(Nc3nc(N4CCC(C(=O)O)CC4)ncc3Cl)ccc2n(C(C)C)c1=O` [Compound I-82], the IC50 is 4 nM.
For `CNC(=O)COc1cc2cc(Nc3nc(N4C[C@H](C)C[C@H](C)C4)ncc3Cl)ccc2n(C(C)C)c1=O` [Compound I-83] the value was 12 nM.
`CNC(=O)COc1cc2cc(Nc3nc(N4CCC(F)CC4)ncc3Cl)ccc2n(C(C)C)c1=O` [Compound I-84]: inhibition was half-maximal at 10 nM (IC50).
Under `CNC(=O)COc1cc2cc(Nc3nc(N4CCC(F)(F)CC4)ncc3Cl)ccc2n(C(C)C)c1=O` [Compound I-85] stands 9 nM; under `CNC(=O)COc1cc2cc(Nc3nc(N4CCC(C(=O)O)CC4)ncc3Cl)ccc2n(CC2CC2)c1=O` [Compound I-86], 3 nM; under `CNC(=O)COc1cc2cc(Nc3nc(N4C[C@H](C)C[C@H](C)C4)ncc3Cl)ccc2n(CC2CC2)c1=O` [Compound I-87], 15 nM.
Under `CNC(=O)COc1cc2cc(Nc3nc(N4CCC(F)CC4)ncc3Cl)ccc2n(CC2CC2)c1=O` [Compound I-88] stands 6 nM; under `CNC(=O)COc1cc2cc(Nc3nc(N4CCC(F)(F)CC4)ncc3Cl)ccc2n(CC2CC2)c1=O` [Compound I-89], 8 nM; under `CNC(=O)COc1cc2cc(Nc3nc(N4CCC(C(=O)N5CCN(C)CC5)CC4)ncc3Cl)ccc2n(C)c1=O` [Compound I-90], 7 nM.
In turn, `CNC(=O)COc1cc2cc(Nc3nc(N4CCN(CCC(=O)O)CC4)ncc3Cl)ccc2n(C)c1=O` [Compound I-91] displayed an IC50 of 7 nM.

For the origin of these results see patent US11001570B2, “6-amino-quinolinone compounds and derivatives as BCL6 inhibitors” (Boehringer Ingelheim International GmbH, priority 2016, dated 2021).
